Test results: patent publication US12024506B2, “Compounds” (Oxford University Innovation Limited, priority 2018, dated 2024)

Each compound was assayed against T1, GST-human KRas166 (G12V) GPPNHP (Homo sapiens, UniProt P01116, G12V) (assay: KRas small-molecule screening by SPR (Biacore T200)). Conditions: compound 100 uM, 5% DMSO buffer; immobilised GST-KRas166 (G12V) GPPNHP.
T1 construct: made in house; host or cells: E. coli C41(DE3)
Type: binding
Procedure: For SPR assays pGEX-KRAS(G12V) plasmid was transformed into E. coli C41(DE3). Bacterial cells were cultured at 37° C. to an OD600 of 0.6 and induced with IPTG (final 0.1 mM) at 18° C. over night. The GST fusion proteins were extracted from bacteria pellets after cell disruption in 140 mM NaCl, 2.7 mM KCl, 10 mM NaH2PO4, 1.8 mM KH2PO4, 1 mM EDTA, 2 mM MgCl2 pH 7.4 and purified by glutathione-sepharose column chromatography (GE Healthcare), eluting with 50 mM Tris-HCl pH8.0, 10 mM reduced glutathione, 1 mM DTT, 2 mM MgCl2. The eluted proteins were dialysed against 50 mM Tris-HCl pH8.0, 1 mM DTT, 2 mM MgCl2 and concentrated to 10 mg/ml using a Biomax-30 ULTRAFREE-15 centrifugal filter device (Millipore). Purified KRAS protein was loaded with GPPNHP as described elsewhere (Pacold et al., 2000). Loaded protein was then purified by gel filtration on a HiLoad Superdex-75 HR column (GE Healthcare) in 1×PBS pH7.4, 5 mM MgCl2 and concentrated for storage.
Protocol for KRas Small-Molecule Screening and Affinity Measurements by SPR
To a previously immobilized CM5 chip (GE Healthcare BR-1005-30) with anti GST antibody via amine coupling method, GST in channel 1 and GST-human KRas166 (G12V) GPPNHP in channel 2 were immobilised. GST was immobilised between 2,000 and 5,000 Response units. KRAS166 (G12V) was immobilized between 10,000 to 15,000 Response Units.
In a 96 well plate, compounds were diluted in […], 5 mM MgCl2 and 5% DMSO Buffer to a final concentration of 100 uM. DCAl was used as positive control. Experiment also included a solvent correction curve for 5% DMSO. Screening and evaluation of the protein immobilization and the compounds screening was done accordingly to the BIACORE T200 control and evaluation software.
Calculations for how many response units are required for a 1:1 ratio of compound/protein interaction are shown below. • Protein immobilisation: 10,000 RU; average fragment 300 Da in size. • Rmax=(MWA/MWL)×RL×SM • MWA is the molecular weight of the analyte in Da • MWL is the molecular weight of the ligand in Da • RL is the immobilization level in RU • SM is the molar stoichiometry (assume 1:1) • Rmax=300/47,500×10,000×1 • Rmax=63 RU. Cell Viability Assay protocols Assay 1
COc1cccc(-c2cccc3c2O[C@@H](CNC(=O)c2ccc(CN4CCN(C)CC4)o2)CO3)n1 [Example 44, 5-(4-Methyl-piperazin-1-ylmethyl)-furan-2-carboxylic acid [(S)-8-(6-methoxy-pyridin-2-yl)-2,3-dihydro-benzo[1,4]dioxin-2-ylmethyl]-amide] was tested, and the “SPR Response Units” value was 42 Response Units.
For COc1nc(-c2cccc3c2OCCO3)ccc1Nc1ccc(C(=O)NCc2cc[nH]c(=O)c2)cc1 [Example 161], the “SPR Response Units” value was 16 Response Units.
CC(C)(C)OC(=O)NCc1ccc(C(=O)N2CCN(c3cccc4c3OCCO4)CC2)cc1 [Example 169, {4-[4-(2,3-Dihydro-benzo[1,4]dioxin-5-yl)-piperazine-1-carbonyl]-benzyl}-carbamic acid tert-butyl Ester] was tested, and the “SPR Response Units” value was 25 Response Units.
COc1nc(-c2cccc3c2OCCO3)ccc1Nc1cccc(CNC(=O)c2cn[nH]c2)c1 [Example 81, 1H-Pyrazole-4-carboxylic acid 3-[6-(2,3-dihydro-benzo[1,4]dioxin-5-yl)-2-methoxy-pyridin-3-ylamino]-benzylamide] was tested, and the “SPR Response Units” value was 109 Response Units.
In the case of N[C@H]1CC[C@@H](NC(=O)Nc2ccnc(-c3cccc4c3OC(CNC(=O)C3CCOCC3)CO4)c2)C1 (stereo partly drawn) [Example 142, tetrahydro-pyran-4-carboxylic acid (8-{4-[3-((1R,3S)-3-amino-cyclopentyl)-ureido]-pyridin-2-yl}-2,3-dihydro-benzo[1,4]dioxin-2-ylmethyl)-amide], the “SPR Response Units” value is reported as 26 Response Units.
With COc1cccc(-c2cccc3c2OCCO3)n1 [Example 1, 2-(2,3-Dihydro-benzo[1,4]dioxin-5-yl)-6-methoxy-pyridine] the “SPR Response Units” value was 10 Response Units.
With COc1nc(-c2cccc3c2OCCO3)ccc1NC1CCN(C)C1 (stereo not shown) [Example 86, [6-(2,3-Dihydro-benzo[1,4]dioxin-5-yl)-2-methoxy-pyridin-3-yl]-(1-methyl-pyrrolidin-3-yl)-amine] the “SPR Response Units” value was 17 Response Units.
In the case of COc1cc(NC(=O)[C@H]2CC[C@@H](N)CC2)cc(-c2cccc3c2OCCO3)n1 [Example 21, 4-Amino-cyclohexanecarboxylic acid [2-(2,3-dihydro-benzo[1,4]dioxin-5-yl)-6-methoxy-pyridin-4-yl]-amide], the “SPR Response Units” value is reported as 66 Response Units.
In the case of COc1nc(-c2cccc3c2OC(CNC(=O)C2CCOCC2)CO3)ccc1Nc1ccc(C(=O)NCCO)cc1 (stereo not shown) [Example 89, Tetrahydro-pyran-4-carboxylic acid (8-{5-[4-(2-hydroxy-ethylcarbamoyl)-phenylamino]-6-methoxy-pyridin-2-yl}-2,3-dihydro-benzo[1,4]dioxin-2-ylmethyl)-amide], the “SPR Response Units” value is reported as 132 Response Units.
For COc1nc(-c2cccc3c2OC(CNC(=O)C2CCOCC2)CO3)ccc1Nc1ccc(C(=O)N(C)C)cc1 (stereo not shown) [Example 94, Tetrahydro-pyran-4-carboxylic acid {8-[5-(4-dimethyl-carbamoyl-phenylamino)-6-methoxy-pyridin-2-yl]-2,3-dihydro-benzo[1,4]dioxin-2-ylmethyl}-amide], the “SPR Response Units” value was 111 Response Units.
For CN(C)CCOc1ccc(C(=O)NCC2COc3cccc(-c4cccc(=O)[nH]4)c3O2)cc1 (stereo not shown) [Example 53, 4-(2-dimethylamino-ethoxy)-N-[8-(6-oxo-1,6-dihydro-pyridin-2-yl)-2,3-dihydro-benzo[1,4]dioxin-2-ylmethyl]-benzamide], the “SPR Response Units” value was 52 Response Units.
In the case of COc1cc(N)cc(-c2cccc3c2OCCO3)n1 [Example 3, 2-(2,3-Dihydro-benzo[1,4]dioxin-5-yl)-6-methoxy-pyridin-4-ylamine], the “SPR Response Units” value is reported as 16 Response Units.
For CN(C)Cc1cccc(Nc2ccc(-c3cccc4c3OCCO4)nc2)c1 [Example 59, [6-(2,3-Dihydro-benzo[1,4]dioxin-5-yl)-pyridin-3-yl]-(3-dimethylaminomethyl-phenyl)-amine], the “SPR Response Units” value was 79 Response Units.
